Data: patent US7429482B2, “Screening tools for discovery of novel anabolic agents” (United States of America as represented by the Department …, priority 2005, dated 2008)

Columns and labels:
MAFbx = test: Acute denervation: MAFbx mRNA in EDL and soleus (qPCR); type: in vivo, rat; settings: nandrolone 1.5 mg/kg/wk 14 days
Description: Male Wistar rats weighing 250 gm (Taconic Farms, Germantown, N.Y.) were provided food and water ad libitum and were housed in a temperature and humidity controlled environment providing a 12:12 hour day-night cycle. For surgical procedures, animals were anesthetized with ketamine/xylazine. The left sciatic nerve was exposed by blunt dissection, and a 1 to 2 mm piece of this nerve was excised just below the level of the femoral head. A sham surgery was performed on the right hind limb in which the sciatic nerve was exposed but was not transected. Model 2002 Alzet pumps were implanted subcutaneously on the back. […] A pellet containing 15 mg of testosterone (Innovative Research of America, Sarasota, Fla.) administered as a continuous infusion (5 mg/wk), or a pellet containing placebo, was inserted into a subcutaneous pouch. […] Because testosterone is known to have anabolic actions (Ferrando et al., Am J Physiol Endocrinol Metab 282: E601-E607, 2002; Mauras et al., J Clin Endocrinol Metab 83: 1886-1892, 1998; Urban et al., Am J Physiol 269: E820-E826, 1995), reductions in levels of this hormone could affect muscle mass and confound interpretation of the results. Animals were euthanized 14 days later by inhalation of carbon dioxide. […]
Total RNA was extracted from skeletal muscle (20 mg) by homogenization in guanidine thiocyanate using a Polytron followed by extraction using phenol-chloroform (Chomczynski and Sacchi, Anal Biochem 162: 156-159, 1987). […] Total RNA was then eluted and quantified by absorbance at 260 nm. […] Levels of gene expression in the denervated muscle were expressed as fold induction relative to muscle from the sham-denervated leg of animals administered vehicle. […] Fold-induction was determined using the 2^−ΔΔCt method, using expression of 18S RNA as the normalization control. […]

myogenin = test: Acute denervation: myogenin mRNA in EDL and soleus (qPCR); type: in vivo, rat
Description: Male Wistar rats weighing 250 gm (Taconic Farms, Germantown, N.Y.) were provided food and water ad libitum and were housed in a temperature and humidity controlled environment providing a 12:12 hour day-night cycle. For surgical procedures, animals were anesthetized with ketamine/xylazine. The left sciatic nerve was exposed by blunt dissection, and a 1 to 2 mm piece of this nerve was excised just below the level of the femoral head. A sham surgery was performed on the right hind limb in which the sciatic nerve was exposed but was not transected. Model 2002 Alzet pumps were implanted subcutaneously on the back. […] A pellet containing 15 mg of testosterone (Innovative Research of America, Sarasota, Fla.) administered as a continuous infusion (5 mg/wk), or a pellet containing placebo, was inserted into a subcutaneous pouch. […] Because testosterone is known to have anabolic actions (Ferrando et al., Am J Physiol Endocrinol Metab 282: E601-E607, 2002; Mauras et al., J Clin Endocrinol Metab 83: 1886-1892, 1998; Urban et al., Am J Physiol 269: E820-E826, 1995), reductions in levels of this hormone could affect muscle mass and confound interpretation of the results. Animals were euthanized 14 days later by inhalation of carbon dioxide. Following removal of blood from the left ventricle for determination of serum testosterone concentration by radioimmunoassay (MP Biomedicals, Costa Mesa, Calif.), soleus, extensor digitorum longus (EDL), gastrocnemius and plantaris muscles were excised and weighed, then were flash frozen on dry ice and stored at −80° C.
Total RNA was extracted from skeletal muscle (20 mg) by homogenization in guanidine thiocyanate using a Polytron followed by extraction using phenol-chloroform (Chomczynski and Sacchi, Anal Biochem 162: 156-159, 1987). Total RNA was further enriched using RNAeasy minicolumns (Qiagen, Valencia, Calif.) and treated with RNAse-free DNAse (Qiagen). Total RNA was then eluted and quantified by absorbance at 260 nm. One μg of total RNA was used to prepare a cDNA library by reverse transcription (iScirpt, Biorad, Hercules, Calif.). Libraries were diluted 1:25 with water prior to real time PCR. Real time PCR was conducted using an ABI 7500 real time PCR thermal cycler, ABI 2×PCR reagent, and ABI Taqman real time PCR probes for genes of interest. Levels of gene expression in the denervated muscle were expressed as fold induction relative to muscle from the sham-denervated leg of animals administered vehicle. […] Fold-induction was determined using the 2^−ΔΔCt method, using expression of 18S RNA as the normalization control. Primers and probes used for 18S RNA, MuRF1 and myostatin were obtained through the assays by Design service of Applied Biosystems and had the sequences are shown in Table 2; probes were 5′ labeled with FAM and 3′ modified with a non-fluorescent quencher. All other primer-probe combinations used were those contained in ABI Assay on Demand kits.

MAFbx mRNA = MAFbx mRNA half-life after actinomycin in C2C12.AR cells; type: cell-based, mouse
Description: (A) Rats were administered test agents as indicated in the figure for 7-days, at which time animals were sacrificed and MAFbx expression was determined in gastrocnemius muscles by qPCR. Data are mean values±SEM for at least 8 animals. * p<0.05 vs vehicle, t-test. (B) AR6 cells were seeded into 6-well plates and incubated overnight in growth medium. Medium was replaced with DMEM containing 2% horse serum followed by incubation for an additional 48 hours. Hormones or vehicle (EtOH) were added to the medium and cells were incubated overnight, at which time MAFbx mRNA levels were determined by qPCR and expressed as fold-induction versus levels in cells incubated with EtOH. Data are mean values±SEM for three determinations each performed in triplicate. * p<0.05 vs. EtOH (ANOVA). (C) Effect of testosterone on MAFbx mRNA half-life. C2C12.AR cells were incubated overnight in growth medium supplemented with testosterone or vehicle (EtOH). […] Levels of MAFbx mRNA are expressed as a percentage of those at time zero. […]
RNA was quantified by absorbance at 260 nm. […] Relative changes in expression were determined using the 2^−ΔΔCt method. Taqman Assay on Demand probes (Applied Biosystems) were used for all assays except rat 18S RNA, which was quantified using the following Assay on Demand Probes: Forward: […] […]

C[C@]12CC[C@H]3[C@@H](CCC4=CC(=O)CC[C@@H]43)[C@@H]1CC[C@@H]2O [nandrolone]
MAFbx expression (MAFbx; denervated EDL): reductions were not statistically significant
MAFbx expression (MAFbx; denervated soleus): significantly reduced
MAFbx expression (MAFbx; sham-denervated EDL or soleus): did not significantly alter
myogenin expression (myogenin; denervated EDL, not significant): tended to reduce
myogenin expression as % of that in denervated muscle from placebo animals (myogenin; denervated soleus): 70%
reduction of myogenin expression (myogenin; sham-denervated EDL, not significant): 50%
reduction of myogenin expression (myogenin; sham-denervated EDL, trend, not significant): 27%
reduction of myogenin expression (myogenin; sham-denervated soleus, did not reach significance): 50%
reduction of myogenin expression (myogenin; sham-denervated soleus, trend, not significant): 48%

C[C@]12CC[C@H]3[C@@H](CCC4=CC(=O)CC[C@@]43C)[C@@H]1CC[C@@H]2O [testosterone]
half-life of MAFbx mRNA versus absence of testosterone (MAFbx mRNA): not significantly different
